Reference: patent US20130225575A1, “METHODS FOR TREATING NEUROLOGICAL CONDITIONS” (AFRAXIS, INC., priority 2010, published 2013)

Columns and labels:
Type in all cases: biochemical
PAK3 = PAK3 (Homo sapiens, UniProt O75914); assay: Z'Lyte fluorescence-based (FRET) kinase assay, PAK3; settings: ATP at Km apparent (100 μM ATP); 1 hr room temperature
Description: (§1) A fluorescence-based assay format is used to determine […] values of test compounds in vitro. Purified PAK kinase is incubated with ATP, and a test compound at various concentrations and a substrate peptide containing two fluorophores. In a second step, the reaction mix is incubated with a site-specific protease that cleaves non-phosphorylated but not phosphorylated substrate peptide, disrupting the FRET signal generated by the two fluorophores in the cleaved peptide (Z'Lyte™ Kinase assay platform; Life Technologies).
(§2) Reagents: 50 mM HEPES, pH 7.5; 0.01% BRIJ-35; 10 mM MgCl2; 1 mM EGTA, 2 uM substrate peptide Ser/Thr20 (proprietary Life Technologies Sequence), PAK enzyme [2.42-30.8 ng for PAK1, 0.29-6 ng for PAK2, 1.5-20 ng for PAK3 and 0.1-0.86 ng for PAK4; actual enzyme amounts depend on lot activity of the enzyme preparation]
(§3) Test compounds are dissolved in DMSO at various concentrations; the final DMSO concentration in the assay reaction is 1%.
(§4) ATP concentration at Km apparent is used in the assay [50 ? M ATP for PAK1 assay, 75 ? M ATP for PAK2 assay, 100 μM ATP for PAK3 assay, 5 μM ATP for PAK4 assay] in a total assay volume of 10 μl. […]
(§5) Plates are analyzed in a standard fluorescence plate reader (Tecan or equivalent) using an excitation wavelength of 400 nm and emission wavelengths of 445 nm and 520 nm. Inhibition of kinase reaction is determined by […]

PAK2 = PAK2 (Homo sapiens, UniProt Q13177); assay: Z'Lyte fluorescence-based (FRET) kinase assay, PAK2; settings: ATP at Km apparent; 1 hr room temperature
PAK2, sequence (Q13177 whole entry): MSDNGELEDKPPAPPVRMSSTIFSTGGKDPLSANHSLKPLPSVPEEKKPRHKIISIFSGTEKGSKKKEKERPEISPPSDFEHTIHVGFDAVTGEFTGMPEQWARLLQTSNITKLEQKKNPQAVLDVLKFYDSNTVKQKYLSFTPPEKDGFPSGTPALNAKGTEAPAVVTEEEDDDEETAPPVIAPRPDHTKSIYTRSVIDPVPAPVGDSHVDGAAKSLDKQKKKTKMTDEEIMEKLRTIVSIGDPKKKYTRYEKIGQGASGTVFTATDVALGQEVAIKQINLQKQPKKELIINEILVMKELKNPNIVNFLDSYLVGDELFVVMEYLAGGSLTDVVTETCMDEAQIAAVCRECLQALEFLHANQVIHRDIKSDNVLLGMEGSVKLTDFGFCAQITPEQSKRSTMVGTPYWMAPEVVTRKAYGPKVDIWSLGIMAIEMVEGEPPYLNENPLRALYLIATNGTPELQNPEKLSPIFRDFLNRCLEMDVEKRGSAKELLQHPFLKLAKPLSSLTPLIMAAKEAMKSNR
Description: as §1, §2, §3, §4, §5

PAK1 = target: T1, PAK1 (Homo sapiens, UniProt Q13153); assay: Z'Lyte fluorescence-based (FRET) kinase assay, PAK1; settings: ATP at Km apparent; 1 hr room temperature
T1 construct: Purified PAK kinase is incubated with ATP
T1 sequence (Q13153 whole entry): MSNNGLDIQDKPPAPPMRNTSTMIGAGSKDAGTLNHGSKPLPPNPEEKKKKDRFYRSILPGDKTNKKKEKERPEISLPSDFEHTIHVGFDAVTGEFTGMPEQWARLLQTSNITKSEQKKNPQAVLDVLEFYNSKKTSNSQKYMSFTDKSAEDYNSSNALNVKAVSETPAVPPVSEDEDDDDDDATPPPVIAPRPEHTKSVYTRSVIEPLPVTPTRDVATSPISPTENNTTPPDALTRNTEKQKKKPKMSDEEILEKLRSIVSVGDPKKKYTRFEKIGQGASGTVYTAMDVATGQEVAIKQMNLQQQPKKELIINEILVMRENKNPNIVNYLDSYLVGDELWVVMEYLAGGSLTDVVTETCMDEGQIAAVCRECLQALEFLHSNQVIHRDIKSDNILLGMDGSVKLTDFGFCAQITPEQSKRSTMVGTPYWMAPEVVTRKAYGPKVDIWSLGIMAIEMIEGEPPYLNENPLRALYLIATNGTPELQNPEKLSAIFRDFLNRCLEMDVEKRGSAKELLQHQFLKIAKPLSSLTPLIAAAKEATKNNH
Description: as §1, §2, §3, §4, §5

PAK4 = target: T2, PAK4 (Homo sapiens, UniProt O96013); assay: Z'Lyte fluorescence-based (FRET) kinase assay, PAK4; settings: ATP at Km apparent (5 μM ATP); 1 hr room temperature
T2 construct: Purified PAK kinase is incubated with ATP
T2 sequence (O96013 whole entry): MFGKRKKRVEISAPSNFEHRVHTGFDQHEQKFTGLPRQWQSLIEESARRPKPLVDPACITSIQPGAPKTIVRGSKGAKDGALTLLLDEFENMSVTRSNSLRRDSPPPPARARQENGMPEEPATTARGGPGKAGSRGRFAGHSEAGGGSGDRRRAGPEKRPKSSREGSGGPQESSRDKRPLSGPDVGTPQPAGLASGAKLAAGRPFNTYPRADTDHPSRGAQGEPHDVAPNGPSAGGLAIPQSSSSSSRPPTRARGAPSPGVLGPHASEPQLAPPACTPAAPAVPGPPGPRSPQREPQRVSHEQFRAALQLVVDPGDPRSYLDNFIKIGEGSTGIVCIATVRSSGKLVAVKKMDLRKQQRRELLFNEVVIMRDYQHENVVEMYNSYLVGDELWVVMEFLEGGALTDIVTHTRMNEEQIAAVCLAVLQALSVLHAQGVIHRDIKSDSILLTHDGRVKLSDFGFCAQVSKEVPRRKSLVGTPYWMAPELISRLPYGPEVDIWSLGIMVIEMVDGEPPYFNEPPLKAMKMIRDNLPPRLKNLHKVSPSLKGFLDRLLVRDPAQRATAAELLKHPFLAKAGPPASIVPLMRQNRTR
Description: as §1, §2, §3, §4, §5

Measured: IC50

PAK3, sequence (O75914 whole entry): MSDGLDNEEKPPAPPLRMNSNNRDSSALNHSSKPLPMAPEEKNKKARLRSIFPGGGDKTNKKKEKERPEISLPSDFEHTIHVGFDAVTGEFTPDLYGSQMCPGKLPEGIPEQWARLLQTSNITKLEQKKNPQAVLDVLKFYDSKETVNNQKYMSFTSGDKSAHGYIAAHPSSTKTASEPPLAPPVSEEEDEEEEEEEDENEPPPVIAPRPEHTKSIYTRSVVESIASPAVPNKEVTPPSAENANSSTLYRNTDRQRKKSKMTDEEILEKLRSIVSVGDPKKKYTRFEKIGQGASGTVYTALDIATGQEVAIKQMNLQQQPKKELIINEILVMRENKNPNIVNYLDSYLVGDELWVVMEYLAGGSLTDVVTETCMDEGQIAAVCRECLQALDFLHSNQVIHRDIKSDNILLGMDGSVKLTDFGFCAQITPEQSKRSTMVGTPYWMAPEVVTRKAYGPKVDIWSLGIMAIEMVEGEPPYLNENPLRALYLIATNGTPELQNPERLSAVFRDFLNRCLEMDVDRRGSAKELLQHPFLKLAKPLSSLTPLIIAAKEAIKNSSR

CN1CCN(c2ccc(Nc3ncc4ccc(=O)n(Cc5c(O)cccc5Br)c4n3)cc2)CC1 [compound 123]
< 1 µM: PAK3 | PAK2 | PAK1 | PAK4

CN1CCN(c2ccc(Nc3ncc4ccc(=O)n(Cc5c(O)cccc5F)c4n3)cc2)CC1 [compound 105]
< 1 µM: PAK3 | PAK2 | PAK1 | PAK4
